Reference: PMC6680510, “Benzotriazine Di-Oxide Prodrugs for Exploiting Hypoxia and Low Extracellular pH in Tumors” (Molecules, 2019)
Like-named read-outs stand apart in the source and are kept apart here.

Legend:
[1] = parameters: method as in PMID 24737463; settings: cited from earlier work
[2] = system: SiHa and FaDu cells; assay: IC50 assay, summary statements over both cell lines; format: cell-based; settings: read-out: Potency (IC50) under anoxia at pHe 6.5
Method: (§1) Cells were seeded in 96-well plates (SiHa or FaDu 1500 cells/well, UT-SCC-74B 800 cells/well) in 100 μL. After incubation for 2 h, the drugs were added in 50 μL of the same titrated medium at 3× the final concentration to duplicate the wells. After a further 4 h the plates were checked for drug precipitation using a phase contrast microscope, then drugs were removed by aspirating and washing with the standard (pH 7.4) medium, then aspirating again and adding 150 μL of the medium. Cultures were then grown for 5 days before staining with sulphorhodamine B and measuring absorbance, with the estimation of IC50 values using 4-parameter logistic regression, as previously carried out [85].

[3] = system: UT-SCC-74B cells; assay: IC50 assay (inhibition of proliferation, 4 h exposure, SRB); format: cell-based; settings: UT-SCC-74B, UT-SCC-74B; for IC50: Homo sapiens, 4 h
Method: Cells were seeded in 96-well plates (SiHa or FaDu 1500 cells/well, UT-SCC-74B 800 cells/well) in 100 μL. After incubation for 2 h, the drugs were added in 50 μL of the same titrated medium at 3× the final concentration to duplicate the wells. After a further 4 h the plates were checked for drug precipitation using a phase contrast microscope, then drugs were removed by aspirating and washing with the standard (pH 7.4) medium, then aspirating again and adding 150 μL of the medium. Cultures were then grown for 5 days before staining with sulphorhodamine B and measuring absorbance, with the estimation of IC50 values using 4-parameter logistic regression, as previously carried out.
The medium and plasticware was equilibrated in the chamber for 3 days prior to use. In the anoxia experiments, FaDu cells were plated in poly-L-lysine coated plates (Corning Cat # 356461) to improve attachment. […]
Footnotes: a Number of experiments. b Anoxic cytotoxicity ratio = oxic IC50/anoxic IC50. c pH
cytotoxicity ratio = IC50 at pHe 7.4/ IC50 at pHe 6.5. d Overall ratio = oxic IC50 pHe 7.4 / anoxic IC50 pHe
6.5. Values are means and errors are SEM. For ratios, the errors are root mean square SEM. […]

[4] = system: SiHa cells; assay: as above; settings: SiHa; for IC50: Homo sapiens, 4 h
Method in brief: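 Cells exposed to compound for 4 h in titrated medium, then washed and regrown 5 days under standard conditions (oxia, pHe 7.4). Growth read by sulforhodamine B staining; IC50 from 4-parameter logistic regression of duplicate cultures.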

[5] = pulse radiolysis, redox indicator MV^2+; cited from earlier work
[6] = system: SiHa cells; assay: IC50 assay modified for chronic hypoxia (oxia, hypoxia, anoxia); format: cell-based; settings: for IC50: Homo sapiens
Method: There are relatively few viable cells in tumors at O2 concentrations as low as in the above anoxic experiments. In addition, extensive changes in gene expression occur under chronic exposure to intermediate O2 concentrations (chronic hypoxia), including the expression of proteins that regulate pHi. […] Therefore, oxic and anoxic exposures were also tested in these same experiments. The 24 h adaptation to hypoxia had little effect on the subsequent growth of the cultures at either pHe value (Figure S6).
To minimize problems with poor cell attachment under chronic hypoxia, the drugs were added from a 3-fold dilution series made in a separate plate, rather than by serial dilution in the plates containing the cells. In addition, the drugs were removed after the 4 h exposure by centrifuging the plates (200g × 5 min) prior to each aspiration. The same modifications were used for the oxic drug exposures in these experiments.

[7] = system: FaDu cells; assay: IC50 assay (inhibition of proliferation, 4 h exposure, SRB); format: cell-based; settings: for IC50: Homo sapiens, 4 h
Method: as §1

[8] = system: MDCK-II cells with forced expression of BCRP or Pgp; assay: IC50 under anoxia in cells with forced expression of efflux transporters; settings: MDCK-II cell lines under anoxia, preliminary experiments
Method: expression of BCRP or Pgp.
Cells were seeded at 300 cells/well in DMEM with 10% FBS in 96 well plates in an
anaerobic chamber, allowed to attach for 2 h then exposed to drugs for 4 h under anoxia. Cells were
then washed with fresh medium and grown for 5 days under aerobic conditions before staining with
SRB. Values are mean ± SEM from 2 separate experiments.

[9] = system: SiHa and SiHa/POR cells; assay: IC50 in SiHa versus SiHa/POR cultures under anoxia; format: cell-based; settings: 4 h under anoxia, pHe 7.4
Method: The lack of effect of POR over-expression on the reductive metabolism of the BTO acids in intact cells led us to compare the cytotoxicities of SN30000 (2), 4a, and 7a in SiHa/POR, and the parental line, under anoxia (Figure 6).
Drug exposure was for 4 h under anoxia, at pHe 7.4, with regrowth under aerobic conditions for 5 days before staining with SRB. Values are means and SEM for the two experiments, each with triplicate cultures at each drug concentration. TEXT PRINTED IN THE PICTURE: Cmpd 2: Ratio 6.75 ± 0.20 | Cmpd 4a: Ratio 3.40 ± 0.22 | Cmpd 7a: Ratio 2.67 ± 0.46

[10] = system: SiHa cells; assay: Cellular uptake in stirred aerobic single cell suspensions (HPLC, 3H-mannitol correction)
[11] = parameters: method as in PMID 28848445; settings: cited from earlier work

## [O-][n+]1nc(CCCN2CCOCC2)[n+]([O-])c2cc3c(cc21)CCC3 [Compound 2, SN30000, reference compound]
[1]
  pKa of the radical anion: 5.48 ± 0.26
[2]
  IC50: 2.9 to 8.6 µM
[3]; pHe 6.5, 4 h, 20% O2, read-out: Oxic IC50
  IC50: 190 ± 42 µM
[3]; pHe 6.5, 4 h, <0.01% O2, read-out: Anoxic IC50
  IC50: 6.29 ± 1.79 µM
[3]; pHe 7.4, 4 h, 20% O2, read-out: Oxic IC50
  IC50: 477 ± 65 µM
[3]; pHe 7.4, 4 h, <0.01% O2, read-out: Anoxic IC50
  IC50: 5.92 ± 2.42 µM
[3]
  TME ratio (oxic IC50 pHe 7.4/anoxic IC50 pHe 6.5): 75.8 ± 23.9
[3]; anoxic
  PCR Anoxic (IC50 at pHe 7.4/IC50 at pHe 6.5): 0.94± 0.47
[3]; oxic
  PCR oxic (IC50 at pHe 7.4/IC50 at pHe 6.5): 2.51 ± 0.65
[3]; pHe 6.5
  ACR (oxic IC50/anoxic IC50): 30.2 ± 10.9
[3]; pHe 7.4
  ACR (oxic IC50/anoxic IC50): 80.6 ± 34.7
[4]; read-out: Anoxic IC50, SiHa, pHe 6.5, 4 h, anoxic
  IC50: 5.52 ± 2.01 µM
[4]; read-out: Anoxic IC50, SiHa, pHe 7.4, 4 h, anoxic
  IC50: 2.87 ± 0.23 µM
[4]; read-out: Oxic IC50, SiHa, pHe 6.5, 4 h, oxic
  IC50: 253 ± 31 µM
[4]; read-out: Oxic IC50, SiHa, pHe 7.4, 4 h, oxic
  IC50: 292 ± 15 µM
[4]
  TMR (overall TME ratio = oxic IC50 pHe 7.4/anoxic IC50 pHe 6.5): 53 ± 19
[4]; anoxic
  PCR Anoxic (IC50 at pHe 7.4/IC50 at pHe 6.5): 0.52 ± 0.19
[4]; oxic
  PCR oxic (IC50 at pHe 7.4/IC50 at pHe 6.5): 1.15 ± 0.15
[4]; pHe 6.5
  ACR (anoxic cytotoxicity ratio = oxic IC50/anoxic IC50): 46 ± 18.0
[4]; pHe 7.4
  ACR (anoxic cytotoxicity ratio = oxic IC50/anoxic IC50): 101 ± 10
[4]; representative experiment (Figure 3), oxia and anoxia
  PCR (pH cytotoxicity ratio): little or no dependence on pHe
[4]; representative experiment (Figure 3), pHe 7.4 and 6.5
  ACR (anoxia cytotoxicity ratio): approximately 140
[5]
  E^0′ one-electron reduction potential: −401 ± 8 [MV^2+] ^g mV
[6]; 0.2% O2
  PCR (IC50 for pHe 7.4/IC50 for pHe 6.5): 1.76 ± 0.43
[6]; 0.2% O2, both pHe values
  HCR: approximately 20
[6]; 20% O2
  PCR (IC50 for pHe 7.4/IC50 for pHe 6.5): 1.95 ± 0.66
[6]; <0.01% O2
  PCR (IC50 for pHe 7.4/IC50 for pHe 6.5): 0.84 ± 0.15
[6]; 0.2% O2 (24 h before and during 4 h exposure), pHe 6.5
  IC50: 9.88 ± 2.34 µM
[6]; 0.2% O2 (24 h before and during 4 h exposure), pHe 7.4
  IC50: 17.4 ± 1.02 µM
[6]; 4 h, 20% O2, pHe 6.5, 4 h
  IC50: 207 ± 69 µM
[6]; 4 h, 20% O2, pHe 7.4, 4 h
  IC50: 404 ± 21 µM
[6]; 4 h, <0.01% O2, pHe 6.5, 4 h
  IC50: 3.07 ± 0.38 µM
[6]; 4 h, <0.01% O2, pHe 7.4, 4 h
  IC50: 2.59 ± 0.35 µM
[6]; pHe 6.5
  ACR (IC50 for 20% O2/IC50 for <0.01% O2): 67 ± 24
  HCR (IC50 for 20% O2/IC50 for 0.2% O2): 20.1 ± 8.6
[6]; pHe 7.4
  ACR (IC50 for 20% O2/IC50 for <0.01% O2): 156 ± 23
  HCR (IC50 for 20% O2/IC50 for 0.2% O2): 23.2 ± 1.8
[7]
  TMR (oxic IC50 pHe 7.4/anoxic IC50 pHe 6.5): 29.8 ± 5.7
[7]; pHe 6.5, 4 h, anoxic, read-out: Anoxic IC50
  IC50: 8.63 ± 1.55 µM
[7]; pHe 6.5, 4 h, oxic, read-out: Oxic IC50
  IC50: 277 ± 15 µM
[7]; pHe 7.4, 4 h, anoxic, read-out: Anoxic IC50
  IC50: 4.16 ± 0.35 µM
[7]; pHe 7.4, 4 h, oxic, read-out: Oxic IC50
  IC50: 258 ± 15 µM
[7]; anoxic
  PCR Anoxic (IC50 at pHe 7.4/IC50 at pHe 6.5): 0.48 ± 0.10
[7]; oxic
  PCR oxic (IC50 at pHe 7.4/IC50 at pHe 6.5): 0.93 ± 0.08
[7]; pHe 6.5
  ACR (oxic IC50/anoxic IC50): 32.1 ± 6.04
[7]; pHe 7.4
  ACR (oxic IC50/anoxic IC50): 62.0 ± 6.34
[8]
  Effect of overexpression of BCRP or Pgp efflux transporters on sensitivity: no effect
[9]
  IC50 ratio SiHa / SiHa/POR (fold lower IC50 in POR cell line): 6.75 ± 0.20
[9]; listed as SN30000
  IC50 ratio SiHa / SiHa/POR (fold lower IC50 in POR cell line): 6.75
[10]; SiHa cell suspensions, data not shown
  Uptake (Ci/Ce) at 4 °C relative to 37 °C: minor increase
[10]; aerobic SiHa suspensions, 5 min
  Ci ratio (Ci at pHe 6.5/Ci at pHe 7.4): 1.09 ± 0.09 fold
[10]; aerobic SiHa suspensions, 60 min
  Ci ratio (Ci at pHe 6.5/Ci at pHe 7.4): 0.95 ± 0.07 fold
[10]; aerobic SiHa suspensions, pHe 6.5, 5 min
  Ci/Ce, pHe 6.5 Obs 5 min: 2.75 ± 0.07
[10]; aerobic SiHa suspensions, pHe 6.5, 60 min
  Ci/Ce, pHe 6.5 Obs 60 min: 2.37 ± 0.02
[10]; aerobic SiHa suspensions, pHe 7.4, 5 min
  Ci/Ce, pHe 7.4 Obs 5 min: 2.48± 0.27
[10]; aerobic SiHa suspensions, pHe 7.4, 60 min
  Ci/Ce, pHe 7.4 Obs 60 min: 2.49 ± 0.05

## O=C(O)CCc1nc2cc3c(cc2[n+]([O-])n1)CCC3 [Compound 15d, 3-(2-Carboxyethyl)-7,8-dihydro-6H-indeno[5,6-e][1,2,4]triazine 1-Oxide]
[11]
  Protein bound in mouse plasma: > 90%
